The text below walks through data of patent publication US20100324017A1, “ACYLGUANIDINE DERIVATIVE” (priority 2007, published 2010).

One assay has as its system MAP-induced overactivity. The experiment in a line: MAP (methane phetamine)-induced overactivity in mice, kinetic momentum by infrared sensor. It is filed as in vivo. Conditions: mouse, oral, MAP 1 mg/kg i.p., total 60 minutes, P<0.05. As for the experimental part: Evaluation of Various Drugs Relative to a Drug for Increasing the Kinetic Momentum of Mice (Methane Phetamine, MK-801) (Method for Measuring a Kinetic Momentum by Discharge of an Infrared Ray)
The effect of improving the positive symptoms and the negative symptoms of schizophrenia by the compound (I) was evaluated by measuring the kinetic momentum that had been […] with administration of the compound in a model causing the symptoms by methane phetamine (which is hereinafter simply referred to as MAP) and MK-801.
Species: Male ICR mouse/number of animals (number of animals per group): 8 to 12 animals per group
The animal was left in a laboratory for 1 hour or longer to be acclimated to the environment, and the animal was taken from the feeding cage, orally administered with a compound to be tested, and then returned to the feeding cage. After 30 minutes, it was put into a cage for measurement, and the kinetic momentum of just the compound to be tested was measured. Further, after 30 minutes, the animal was taken out, and intraperitoneally administered with a drug for increasing kinetic momentum (MAP; 1 mg/kg or MK-801; 0.3 mg/kg, all dissolved in physiological saline), and its kinetic momentum was measured for a certain time (60 minutes) using a device for measuring the kinetic momentum by means of an infrared ray sensor (CompACT AMS, Muromachi Kikai Co., Ltd.). Also, the test was carried out under non-fasting.
The 60 minutes of measurements was classified into three groups: a first half 30 minutes, a second half 30 minutes, and a total 60 minutes. For a normal mouse (a mouse administered with physiological saline) and a mouse administered with the drug for increasing kinetic momentum, a Student's T test was used for evaluation in each interval. For the group administered with the compound to be tested, a solvent (vehicle) group and a Dunnett's T test were carried out and evaluated. For the evaluation, in case where there was a significant (P<0.05) difference for the total 60 minutes, it was considered to be effective.

Assay [1] has as its system water maze learning disorders in old rats. The experiment in a line: Water maze learning disorders in old rats. It is filed as in vivo, rat. How it is done:
Evaluation of a Drug for Water Maze Learning Disorders in Old Rats
The improvement effect of the compound (I) for dementia was evaluated by a known water maze learning disorder model used as a pathophysiology model.
Specifically, it was evaluated in accordance with the method as described in “J Pharmacol Exp Ther, 1996; 279: 1157-73, Yamazaki M. et al.”.

The subject of assay [2] is MK-801-induced spontaneous alternation behavior disorder. The experiment in a line: MK-801-induced spontaneous alternation behavior disorder in mice (Y-maze). The format is in vivo. Conditions: mouse, oral, dose 0.003 mg/kg; MK-801 0.15 mg/kg i.p. How it is done: An Improvement Effect for Scopolamine-Induced or MK-801-Induced Spontaneous Alternation Behavior in Mice
An improvement effect of the compound (I) for cognitive impairment was evaluated by the above-described well-known test method as a model of a short-term learning disorder.
Species: Male ddY mice/number of animals (number of animals per group): 6 to 10 animals per group
A mouse was introduced into the laboratory 1 hour before starting the test. The mouse was placed at one end of an arm in a Y-maze having equal lengths of arms in three directions, and was able freely explored for 8 minutes with the number of the entries into the arms were counted. Furthermore, a spontaneous alternation behavior was defined as consecutive entries into each of the three arms, and an alternation rate was defined as the percentage of the number of time of this behavior relative to the total number of the entries, and calculated by the following equation.
Alternation rate (%)=(number of spontaneous alternation behaviors/total number of entries−2)×100. […]
The alternation rate (%) is expressed as an average value in each group (mean±SE). […] By carrying out the Dunnett evaluation for the group administered with the compound to be tested relative to the control group, the presence or absence of the learning disorder action of the compound to be tested was determined. […]

For the molecule `CC(C)n1c2cc(C(=O)N=C(N)N)ccc2c2c(CO)cccc21` [Example 65], the “inhibition of MAP-induced overactivity” value in the assay on MAP-induced overactivity (dose 0.003 mg/kg) is on record as “significantly inhibited”.
Consider `NC(N)=NC(=O)c1ccc2c3ccccc3n(C3CCOCC3)c2c1` [Example 25], for which the “improvement of water maze learning disorders in old rats” value in assay [1] (dose 0.01 mg/kg) and in assay [1] (dose 0.03 mg/kg) was “significantly improved” throughout. Besides, in the assay on MAP-induced overactivity (dose 0.01 mg/kg), the “inhibition of MAP-induced overactivity” value is listed as “significantly inhibited”. Besides, in assay [2], the “improvement of MK-801-induced spontaneous alternation behavior disorder” value is given as “significantly improved”.
